# ChEMBL document CHEMBL3886467 (2016)
# Target: WD repeat-containing protein 5 (Homo sapiens, UniProt P61964)
# Test: Binding Assay: All the FP based experiments were performed in MICROFLUOR 2 Black, "U" Bottom, 96-well Microtiter Plates (ThermoSci.) and FP was measured as mP units in a microplate reader (Tecan Ultra) with excitation at 485 nm and emission at 530 nm. To dilutions of WDR5Δ23 (2.2-0 uM) in 100 ul assay buffer (0.1M Phosphate, 25 mM KCl, 0.01% Triton, pH 6.5) 20 ul of a fixed concentration of the tracer in the assay buffer was added, followed by an addition of 5 ul DMSO to give 125 ul of total volume. Each assay had two controls: blank (without protein and tracer) and tracer only (without protein). The plates were incubated on a shaker at room temperature to reach equilibrium and mP values were measured at the 3 hour time point.
row,IC50 [µM],Compound
1,> 30,CCC(CC)(NC(=O)C(C)C)C(=O)N[C@@H](CCCNC(=N)N)C(=O)N(C)C
2,< 10,CCNC(=O)[C@H](CCCNC(=N)N)NC(=O)C(CC)(CC)NC(=O)CC
3,< 10,CCC(CC)(NC(=O)C(C)C)C(=O)N[C@H](CCCNC(=N)N)C(=O)NC1(C(=O)NC(c2ccc(Cl)cc2)c2ccc(Cl)cc2)CCCC1
4,> 10,CC(=O)N[C@@H](C)C(=O)N[C@@H](C(=O)N[C@@H](C)C(N)=O)c1ccc(NC(=N)N)cc1
5,> 10,CC(=O)N[C@@H](C)C(=O)N[C@H](C(=O)N[C@@H](C)C(N)=O)c1ccc(NC(=N)N)cc1
6,< 3,CCC(CC)(NC(=O)C(C)C)C(=O)N[C@@H](CCCNC(=N)N)C(=O)NC1(C(=O)NC(c2ccc(Cl)cc2)c2ccc(Cl)cc2)CCCC1
